# Results reported in US20170131285A1, “METHODS AND COMPOSITIONS FOR DIAGNOSING, MONITORING AND TREATING CANCER” (INSERM (Institut National de la Sante et de la Recherche …, priority 2014, published 2017).
# Where no end group is shown, it is not given here.
# Tested on: membrane HSP70 on tumor-derived exosomes (B16F10, HCT116)
# Experiment: BLI binding of tumor-derived exosomes to immobilized biotinylated A8, with or without cmHSP70
# Method: FIG. 1: Tumor-derived exosomes in cancer patient′ samples express HSP70. (A) The binding of exosomes (10^6), derived from the B16F10, HCT116 cell lines, with or without previous incubation with cmHSP70, to immobilized biotinylated A8 was determined by biolayer interferometry. (B) Association curves of HSP70-exosomes in patients' urines (1 breast, 1 pulmonary) or healthy individuals (controls) with biotinylated A8 immobilized on streptavidin sensor tips. Curves represent mean values of triplicate measurements for each concentration. (C) Exosomes expressing HSP70 were determined by FACS in urine samples from healthy individuals (n=5) and cancer metastatic cancer patients (5 breast, 4 pulmonary). The bar graph presents the means and standard deviations of the vesicle concentrations. (D) Nanoparticle Tracking Analysis (NTA) to quantify total number of exosomes in urine human samples (urines) described above. Samples were diluted in PBS and analyzed using a NanoSight LM10 instrument. Inset values represent the total number of exosomes counted 10̂^9/ml.
# Protein-protein interaction experiments were conducted at 25° C. in PBS with an Octet Red instrument (Forte Bio, Menlo Park, Calif., USA) by biolayer interferometry (BLI). […] Each KD was determined with a 1:1 stoichiometry model using a global fit with Rmax unlinked by sensor (Forte Bio, Data analysis software version 7.1.0.89). […]
sequence,measurement,setting,value
"SPWPRPTY [Aptamer A8, SPWPRPTY]",ability of cmHSP70 to bind to HSP70 (competition),,"in a dose dependent manner, decreased the ability of cmHSP70 to bind to HSP70"
same,capture of exosomes through interaction with membrane-HSP70,"immobilized biotinylated A8, exosomes (10^6)",efficiently captured exosomes
